# What was measured:
# [1] = Anti-ice nucleation active performance (supercooling acceleration), droplet-freezing method of Vali, silver iodide; type: physicochemical; conditions: for anti-ice nucleation activity (in words): 2.0 mM aqueous solution; for improvement in anti-ice nucleation activity level of tri-peptide compared to the mono-amino acid: 2.0 mM
# Protocol: Nine hundred microliters of an aqueous solution was prepared by dissolving silver iodide in ultra-pure water to a silver iodide concentration of 1.0 mg/mL.
# (§1) A blank sample was prepared by mixing 100 μL of ultra-pure water with 900 μL of the aqueous solution in which silver iodide was dissolved.
# (§2) The anti-ice nucleation active performance (supercooling acceleration performance) was measured by using the droplet-freezing method of Vali. More specifically, in accordance with the droplet-freezing method of Vali (FIG. 1), an aluminum film was placed on the copper plate of a cold plate chiller (CoolAce CCA-1000, Tokyo Rikakikai Co., Ltd.), and the film was coated with a silicone oil suspension diluted with acetone and chloroform (a solution of acetone:chloroform=1:2). Then, each sample for evaluation or the blank sample was dropped (10 μL each) on 30 points of the surface, the temperature was decreased at a rate of 1.0° C./min, and the temperature at which 50% of the 30 droplets were frozen was considered to be T50.
# The droplet-freezing temperature of each sample was referred to as SampleT50, and the droplet-freezing temperature of the blank sample was referred to as BlankT50. Then, the anti-ice nucleation activity level ΔT50 (° C.) was calculated by the following formula:
# ΔT50 (° C.)=BlankT50−SampleT50 Formula: […]
# (§3) The results are average values of the results of the test performed three times.
# as §1
# Each sample for evaluation was prepared by mixing 100 μL of the aqueous solutions of Examples 2 and 11 and Comparative Example 10 with 900 μL of the aqueous solution in which silver iodide was dissolved. A blank sample was prepared by mixing 100 μL of ultra-pure water with 900 μL of the aqueous solution in which silver iodide was dissolved.
# as §3
# Cooling curve of tofu = conditions: for anti-ice nucleation activity towards tofu (in words): cooling curve compared to Comparative Example 9; for Freezing onset temperature / Temperature at which tofu was completely frozen / Time taken for tofu to be completely frozen: tofu immersed overnight, cooled in freezer at −20° C.
# Protocol: Silken tofu (1.5 mm (length)×1.5 mm (width)×1.5 mm (height)) that was immersed overnight in the solution of Comparative Example 9 (blank), Example 1 (tyrosine dimer), or Example 2 (tyrosine trimer) was cooled.
# A thermocouple thermometer (Horiba) was inserted in tofu, and the temperature was measured every 20 seconds in a freezer at −20° C. A cooling curve was then obtained based on the relationship between the temperature (° C.) and the cooling time (in seconds) (FIG. 9). Table 5 below and FIG. 9 show the temperature at which the tofu began to freeze (freezing onset temperature), the temperature at which the tofu was completely frozen, and the time taken for the tofu to be completely frozen.
# [2] = State of tofu after freezing and thawing, and breaking load of tofu; conditions: frozen in liquid nitrogen
# Protocol: Silken tofu (1.5 mm (length)×1.5 mm (width)×1.5 mm (height)) was immersed in the solution of Comparative Example 9 (water, blank) or Example 1 (tyrosine dimer) overnight. Thereafter, the tofu was taken out of the solution, the moisture was wiped off, and then the tofu was wrapped with wrap (plastic wrap). The tofu wrapped in plastic wrap was immersed in liquid nitrogen to be quickly frozen. The frozen tofu was then slowly thawed (warmed at 25° C.) or quickly thawed (warmed at 60° C.). […] The breaking load (N) of tofu was measured by a creep meter (RE2-33005C, Yamaden, Co., Ltd.).
# [3] = Anti-ice nucleation activity test with respect to biological material (beef liver); conditions: 10 μL, final concentration 0.2 mM, dropped on beef liver; blank ultra-pure water
# Protocol: Ten microliters of an aqueous solution in which the aqueous solution of the anti-ice nucleation activator of Example 2 (tyrosine trimer) was diluted 10-fold with ultra-pure water (final concentration: 0.2 mM) was added dropwise on a beef liver (1 mm (length)×1 mm (width)×1 mm (height)). As a blank sample, ultra-pure water was used.
# The anti-ice nucleation active performance (supercooling acceleration performance) was measured by using a method similar to the droplet-freezing method of Vali described in Test Example 1. The results are average values of the results of the test performed three times.
# Pseudomonas fluorescens = assay: Effect on different kind of ice nucleation active substance, droplet-freezing method of Vali; type: physicochemical; conditions: towards Pseudomonas fluorescens in place of silver iodide; average of three tests
# Protocol: as §2, with “Then, each sample for evaluation or the blank sample was dropped (10 μL each) on 30 points of the surface, the temperature was decreased at a rate of 1.0° C./min, and the temperature at which 50% of the 30 droplets were frozen was considered to be T50.” left out
# The droplet-freezing temperature of each sample was referred to as SampleT50, and the droplet-freezing temperature of the blank sample was referred to as BlankT50. Then, the anti-ice nucleation activity level ΔT50 (° C.) was calculated by the following formula: […]
# A sample for evaluation of Example 1 was prepared in a manner similar to that described in Test Example 1, except that Pseudomonas fluorescens, which is the Pseudomonas bacterium, was used in place of silver iodide, which is an ice nucleation active substance. The anti-ice nucleation active performance (supercooling acceleration performance) was measured by using a test method similar to that described in Test Example 1. […]
# [4] = ΔT50 = BlankT50 − SampleT50, 2.0 mM aqueous solution (100 μL) mixed with 900 μL silver iodide 1.0 mg/mL, average of three tests
compound,measurement,setting,value
"C[C@@H](O)[C@H](N)C(=O)O [Comparative Example 8, threonine, reference compound]",Anti-ice nucleation activity level,[1]; [4],0.1 °C
Tyr-Tyr-Tyr [Example 9],Anti-ice nucleation activity level,"[1]; tyrosine trimer concentration 5.0 mM, silver iodide 1.0 mg/mL",9.2 °C
Tyr-Tyr-Tyr [Example 6],Anti-ice nucleation activity level,"[1]; tyrosine trimer concentration 0.2 mM, silver iodide 1.0 mg/mL",3.7 °C
Tyr-Tyr-Tyr [Example 5],Anti-ice nucleation activity level,"[1]; tyrosine trimer concentration 0.1 mM, silver iodide 1.0 mg/mL",2.3 °C
"N[C@@H](CO)C(=O)O [Comparative Example 6, serine, reference compound]",Anti-ice nucleation activity level,[1]; [4],0.1 °C
Tyr-Tyr-Tyr [Example 7],Anti-ice nucleation activity level,"[1]; tyrosine trimer concentration 0.5 mM, silver iodide 1.0 mg/mL",1.8 °C
"N[C@@H](Cc1ccc(O)cc1)C(=O)O [Comparative Example 1, tyrosine, reference compound]",anti-ice nucleation activity (in words),[1]; silver iodide,no anti-ice nucleation activity
same,Anti-ice nucleation activity level,[1]; [4],0.3 °C
Tyr-Tyr-Tyr-Tyr (YYYY; printed: Tyr-Tyr-Tyr-Tyr) [Example 3],Anti-ice nucleation activity level,[1]; [4],1.8 °C
Tyr-Tyr-Tyr [Example 10],Anti-ice nucleation activity level,"[1]; tyrosine trimer concentration 10.0 mM, silver iodide 1.0 mg/mL",9.2 °C
"Phe-Phe-Phe [Comparative Example 3, reference compound]",improvement in anti-ice nucleation activity level of tri-peptide compared to the mono-amino acid,[1]; silver iodide,no improvement in the anti-ice nucleation activity level
same,Anti-ice nucleation activity level,[1]; [4],0.3 °C
Tyr-Tyr-Tyr [Example 8],Anti-ice nucleation activity level,"[1]; tyrosine trimer concentration 1.0 mM, silver iodide 1.0 mg/mL",5.7 °C
"Ser-Ser-Ser [Comparative Example 5, reference compound]",improvement in anti-ice nucleation activity level of tri-peptide compared to the mono-amino acid,[1]; silver iodide,no improvement in the anti-ice nucleation activity level
same,Anti-ice nucleation activity level,[1]; [4],0.4 °C
"Thr-Thr-Thr [Comparative Example 7, reference compound]",improvement in anti-ice nucleation activity level of tri-peptide compared to the mono-amino acid,[1]; silver iodide,no improvement in the anti-ice nucleation activity level
same,Anti-ice nucleation activity level,[1]; [4],−0.3 °C
Tyr-Tyr [Example 1],anti-ice nucleation activity towards tofu (in words),Cooling curve of tofu,exert anti-ice nucleation activity towards tofu
same,Freezing onset temperature,Cooling curve of tofu,−1.2° ° C.
same,Temperature at which tofu was completely frozen,Cooling curve of tofu,−6.8° ° C.
same,Time taken for tofu to be completely frozen,Cooling curve of tofu,1120 s
same,Anti-ice nucleation activity level,[1]; [4],2.6 °C
same,cavities in the tofu after thawing,[2]; slow or quick thawing,no cavities were formed
same,breaking load of the tofu,"[2]; tofu immersed overnight, slow thawing (25° C.) and quick thawing (60° C.), compared to Comparative Example 9 (water)",low
Tyr-Tyr-Tyr [Example 2],anti-ice nucleation activity towards tofu (in words),Cooling curve of tofu,exert anti-ice nucleation activity towards tofu
same,Freezing onset temperature,Cooling curve of tofu,−0.8° ° C.
same,Temperature at which tofu was completely frozen,Cooling curve of tofu,−7.8° ° C.
same,Time taken for tofu to be completely frozen,Cooling curve of tofu,1080 s
same,anti-ice nucleation activity (in words),[1]; silver iodide,highest anti-ice nucleation activity level
same,improvement in anti-ice nucleation activity level of tri-peptide compared to the mono-amino acid,[1]; silver iodide,significantly improved anti-ice nucleation activity level
same,anti-ice nucleation active performance (in words),"[1]; all concentration levels within 0.1 to 10.0 mM, silver iodide",exhibited anti-ice nucleation active performance
same,Anti-ice nucleation activity level,[1]; [4],10.1 °C
same,Anti-ice nucleation activity level,[3],0.6 °C
same,anti-ice nucleation active performance,Pseudomonas fluorescens,1.9 °C
Tyr-Tyr-Tyr-Tyr-Tyr (YYYYY; printed: Tyr-Tyr-Tyr-Tyr-Tyr) [Example 4],Anti-ice nucleation activity level,[1]; [4],1.7 °C
"N[C@@H](Cc1ccccc1)C(=O)O [Comparative Example 4, phenylalanine, reference compound]",Anti-ice nucleation activity level,[1]; [4],0.5 °C

# Reference: patent publication US20180153194A1, “AGENT HAVING ANTI-ICE NUCLEATION ACTIVITY” (THE SCHOOL CORPORATION KANSAI UNIVERSITY, priority 2015, published 2018)
